The values below come from patent publication US7722863B2, “Use of granzyme b as an hsp70/hsp70 peptide dependent inducer of apoptosis in tumor cells” (Multimmune GmbH, priority 2002, dated 2010).

Assay [1] relates to Hsp70 membrane-positive Colo+ cells. The assay is described as follows: Annexin V-FITC apoptosis assay (flow cytometry). Format: cell-based, human. The conditions noted are these: 12 h and 24 h; camptothecin 4 μg/ml. Here is the method: (§1) Exponentially growing tumor cells (day 1 after cell passage) were used for granzyme B, camptothecin treatment and as targets in cytotoxicity assays.
(§2) Stock solutions of camptothecin (4 mg/ml, Sigma, Munich, Germany) were diluted in DMSO and stored at 4° C. in the dark. Granzyme B (6 ng/ml, Hölzel Diagnostics, Cologne, Germany) solutions were freshly prepared directly before usage. Exponentially growing cells (0.5-1.5×10^6/ml) were incubated either with camptothecin at a final concentration of 4 μg/ml or with purified, enzymatically active granzyme B (10 ng/ml, 1 μg/ml, 2 μg/ml; 4 μg/ml) (Shi et. al. (2000) Methods in Enzymology 322, 125) for 10 min, and 30 min either at 4° C. or at 37° C. After washing in RPMI-1640 medium binding and uptake was determined in nonpermeabilized and permeabilized tumor cells by flow cytometry and fluorescence microscopy on a Axioscop 25 scanning microscope (Zeiss, Jena, Germany) equipped with a 40× objective and standard filters. Images were treated by multiplicative shading correction using the software Axiovison (Zeiss Vison, Jena, Germany). Granzyme B was visualized in red by using the HC2-PE antibody.
(§3) Apoptotic Cell Death was Determined after Incubation of Tumor Cells with 6 ng/ml Granzyme B for 4 h, 12 h, and 24 h at 37° C. and Washing in RPMI-1640 Medium by Different Apoptosis Assays, as Described Below. Apoptosis Assays
(§4) Annexin V-FITC staining: Briefly, cells were washed twice in Hepes buffer containing 5 mM CaCl2 and incubated with Annexin V-FITC (Roche) for 10 min at room temperature. Annexin V-FITC positively stained cells were measured on a FACSCalibur flow cytometer (Becton Dickinson, Heidelberg, Germany).
(§5) The preceding findings posed the question whether purified granzyme B can induce apoptosis of tumor cells that present Hsp70 on their cell surface. […] As a positive control for apoptosis all cell types were incubated with the topoisomerase inhibitor camptothecin at a concentration of 4 μg/ml. Apoptosis was determined by Annexin V-FITC staining measured by FACS (FACSCalibur, Becton Dickinson, Heidelberg, Germany), DAPI staining and mitochondrial cytochrome c release. Apoptosis was not detected in CX+ and CX− cells incubated with camptothecin (cam) or granzyme B (grB) for 4 h incubation (FIG. 3A). […] It appeared that the colon carcinoma sublines CX+/CX− are better protected towards a camptothecin-mediated cell death as compared to the pancreas carcinoma sublines Colo+/Colo−.
On the technique in general: A flow cytometer gives signals particle by particle.

Assay [2] deals with Hsp70 membrane-positive CX+ cells. The assay is described as follows: Annexin V-FITC apoptosis assay (flow cytometry). Format: cell-based, human. The conditions noted are these: camptothecin 4 μg/ml or granzyme B 6 ng/ml; for fold increase of Annexin V-FITC positively stained CX+ cells: versus untreated. Here is the method:
as §1, §2, §3, §4, §5

In assay [3] the test system is Hsp70 membrane-negative CX− cells. The assay is described as follows: Annexin V-FITC apoptosis assay (flow cytometry). Format: cell-based, human. The conditions noted are these: for apoptosis in CX− cells: camptothecin 4 μg/ml or granzyme B 6 ng/ml; for amount of Annexin V-FITC positively stained CX− cells / fold increase of Annexin V-FITC positively stained CX− cells: camptothecin 4 μg/ml; for fold increase of Annexin V-FITC positively stained CX− cells: versus untreated. Here is the method: as §1, §2, §3, §4, §5

Assay [4] deals with Hsp70 membrane-negative Colo− cells. The assay can be described thus: Annexin V-FITC apoptosis assay (flow cytometry). Format: cell-based, human. The conditions noted are these: 12 h and 24 h; camptothecin 4 μg/ml or granzyme B 6 ng/ml. Here is the method: as §1, §2, §3, §4, §5
The test system of another assay is Colo+ tumor cells. The assay is described as follows: DAPI staining of nuclear DNA fragmentation. Format: cell-based, human. The conditions noted are these: 24 h, camptothecin 4 μg/ml or granzyme B 6 ng/ml. Here is the method:
(§6) DAPI-staining: Methanol/aceton fixed cells (0.1×10^6 cells/100 μl) were incubated with 0.5 μg/μl 4,6-diamino-2-phenylindole (DAPI) in PBS/glycerol (3:1), for 15 min in the dark. Following washing in PBS the cells were mounted with Fluorescent Mounting Medium (Dako, Glostrup, Denmark) and than analysed for fluorescence using a Zeiss model Axioscop 2 scanning microscope (Zeiss Jena, Germany) equipped with a 40× objective and standard filters. Apoptosis was visualized with DAPI-staining in 50 cells, each. Images were treated by multiplicative shading correction using software Axiovision (Zeiss Vision Jena, Germany).

Assay [5] relates to CX+ tumor cells. The assay is described as follows: DAPI staining of nuclear DNA fragmentation. Format: cell-based, human. The conditions noted are these: 24 h, camptothecin 4 μg/ml or granzyme B 6 ng/ml. Here is the method: as §6
In the next assay the test system is Colo− tumor cells. The assay is described as follows: DAPI staining of nuclear DNA fragmentation. Format: cell-based, human. The conditions noted are these: 24 h, camptothecin 4 μg/ml or granzyme B 6 ng/ml. Here is the method: as §6
Assay [6] has as its system CX− tumor cells. The assay can be described thus: DAPI staining of nuclear DNA fragmentation. In kind it is cell-based, human. The conditions noted are these: 24 h, camptothecin 4 μg/ml or granzyme B 6 ng/ml. Here is the method:
as §6

Assay [7] relates to CX+ tumor cells. The assay is described as follows: Cytochrome c release, quantitative immunoassay. The conditions noted are these: camptothecin 4 μg/ml or granzyme B 6 ng/ml, 24 h. Format: cell-based, human. Here is the method:
(§7) Cytochrome c release: Cytochrome c release was determined using a quantitative immunoassay; (DCDCO, R&D Systems, Wiesbaden, Germany). Briefly, either untreated, camptothecin (4 μg/ml) or granzyme B (6 ng/ml) treated CX+ and CX− cells (1.5×10^6/ml) were washed in PBS and treated with lysis buffer for 1 h at room temperature. Following centrifugation at 1,000 g for 15 min supernatants were removed and 200 μl of a 1:100, 1:250, and a 1:500 dilution was used for a sandwich ELISA. Following incubation with substrate solution in the dark for 30 min the reaction was stopped. The optical density of each well was determined on an ELISA reader at 450 nm. The amount of cytochrome c was determined according to a calibration curve.
(§8) As an additional test for apoptotic cell death, cytochrome c release was measured following incubation of CX+ and CX− cells with granzyme B for 24 h. As summarized in Table I, following incubation with granzyme B (6 ng/ml) for 24 h, cytochrome c concentration was elevated from 0.382 mg/ml to 0.690 mg/ml (1.8-fold) in CX+ cells. […] It was propose that the trigger of apoptosis by granzyme B is mediated via the extracellular exposed Hsp70 epitope TKD.

Assay [8] has as its system CX− tumor cells. The assay can be described thus: Cytochrome c release, quantitative immunoassay. In kind it is cell-based, human. The conditions noted are these: camptothecin 4 μg/ml or granzyme B 6 ng/ml, 24 h. Here is the method:
as §7, §8

Assay [9] deals with Hsp70 membrane-positive tumor target cells. The conditions noted are these: Hsp70-protein 10 to 50 μg/ml; cited from earlier work.

As to `CC[C@@]1(O)C(=O)OCc2c1cc1n(c2=O)Cc2cc3ccccc3nc2-1` [camptothecin, reference compound], the “apoptosis in Colo+ cells” value in assay [1] is reported as “underwent apoptosis”. The “apoptosis in CX+ cells” value in assay [2] (4 h incubation) is “not detected”; in assay [2] (12 h and 24 h), “underwent apoptosis”. Besides, the “amount of Annexin V-FITC positively stained CX+ cells” value is listed as 28.0% in assay [2] (12 h, untreated 16.6%) and 39% in [2] (24 h, untreated 18%). The figures for the “fold increase of Annexin V-FITC positively stained CX+ cells” value in assay [2] (12 h) and in assay [2] (24 h) were 1.7 fold and 2.1 fold, respectively. Moreover, the “apoptosis in CX− cells” value in assay [3] (4 h incubation) is “not detected”; in [3] (12 h and 24 h), “underwent apoptosis”. The “amount of Annexin V-FITC positively stained CX− cells” value is on record as 19.8% in assay [3] (12 h, untreated 12.1%) and 25.1% in [3] (24 h, untreated 11.9%). The results for the “fold increase of Annexin V-FITC positively stained CX− cells” value in [3] (12 h) and in assay [3] (24 h) were 1.6 fold and 2.1 fold, respectively. Further, the “apoptosis in Colo− cells” value in assay [4] is reported as “underwent apoptosis”. Moreover, the “nuclear DNA fragmentation (DAPI)” value in the assay on Colo+ tumor cells, in the assay on CX+ tumor cells [5], with Colo− tumor cells and in the assay with CX− tumor cells [6] was “exhibited nuclear fragmentation” each time. Further, the “cytochrome c fold increase” value in the assay on CX+ tumor cells [7] (control 1.0) and with CX− tumor cells [8] (control 1.0) was 1.5 fold throughout. For the same compound, the cytochrome c came to 0.555 ± 0.04 mg/mL in the assay with CX+ tumor cells [7] (mean of 4 experiments ± S.E., control 0.382 ± 0.02) and 0.672 ± 0.02 mg/mL in the assay on CX− tumor cells [8] (mean of 4 experiments ± S.E., control 0.452 ± 0.02).
Take “Hsp70-protein: recombinant human Hsp70-protein (Stressgen)”: in [9], the “cytolytic activity of NK cells against Hsp70 membrane-positive tumor target cells” value is “increased cytolytic activity”.
